The target of one test is T1, human CB2R (Homo sapiens, UniProt P34972).
T1 construct: host or cells: CHO cells
Kind of test: CB2R mediated modulation of cAMP synthesis. Format: cell-based. As to the method: B. CB2R Mediated Modulation of cAMP Synthesis:
Compounds of the invention are evaluated for their CB2 agonist or inverse agonistic activity in accordance with the following experimental method.
(§1) CHO cells expressing human CB2R (Euroscreen) are plated at a density of 5000 cells per well in 384 well plates and incubated overnight at 37° C. After removing the media, the cells are treated with test compounds diluted in stimulation buffer containing 1 mM IBMX, 0.25% BSA and 10 uM Forskolin. The assay is incubated for 30 minutes at 37° C. Cells are lysed and the cAMP concentration is measured using DiscoverX-XS cAMP kit, following the manufacturer's protocol. In this setting, agonists will decrease forskolin induced production of cAMP while inverse agonists will further increase forskolin induced production of cAMP. EC50 of agonists are calculated as follows. The maximal amount of cAMP produced by forskolin compared to the level of cAMP inhibited by 1 uM CP55940 is defined as 100%. […] Data is analyzed using a four-parameter logistic model. (Model 205 of XLfit 4.0).

The next test deals with T2, human CB1R (Homo sapiens, UniProt P21554).
T2 construct: host or cells: CHO cells
T2 sequence (P21554 whole entry): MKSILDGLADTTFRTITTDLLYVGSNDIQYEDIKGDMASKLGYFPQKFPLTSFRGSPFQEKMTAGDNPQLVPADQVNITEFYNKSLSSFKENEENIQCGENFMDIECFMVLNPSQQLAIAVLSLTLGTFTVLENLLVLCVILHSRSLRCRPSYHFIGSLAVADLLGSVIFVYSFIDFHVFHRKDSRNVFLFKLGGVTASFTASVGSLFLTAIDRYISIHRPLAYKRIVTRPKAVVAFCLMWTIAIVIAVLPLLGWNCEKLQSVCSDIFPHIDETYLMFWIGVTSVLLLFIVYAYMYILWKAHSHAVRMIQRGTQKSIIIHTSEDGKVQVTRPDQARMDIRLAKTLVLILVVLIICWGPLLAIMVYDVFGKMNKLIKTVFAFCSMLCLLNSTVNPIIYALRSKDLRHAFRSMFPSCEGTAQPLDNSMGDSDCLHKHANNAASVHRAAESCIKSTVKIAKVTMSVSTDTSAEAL
As to the kind of experiment: CB1R mediated modulation of cAMP synthesis. It is filed as cell-based. How it is done:
C. CB1R Mediated Modulation of cAMP Synthesis:
Compounds of the invention are evaluated for their CB1 agonist or inverse agonistic activity in accordance with the following experimental method.
as §1, with “CB1R” for “CB2R”

Where only a bound is given, the exact number is not on record here.

These results are taken from patent US8048899B2, “Compounds which selectively modulate the CB2 receptor” (Boehringer Ingelheim International GmbH, priority 2008, dated 2011).

T1 sequence (P34972 whole entry): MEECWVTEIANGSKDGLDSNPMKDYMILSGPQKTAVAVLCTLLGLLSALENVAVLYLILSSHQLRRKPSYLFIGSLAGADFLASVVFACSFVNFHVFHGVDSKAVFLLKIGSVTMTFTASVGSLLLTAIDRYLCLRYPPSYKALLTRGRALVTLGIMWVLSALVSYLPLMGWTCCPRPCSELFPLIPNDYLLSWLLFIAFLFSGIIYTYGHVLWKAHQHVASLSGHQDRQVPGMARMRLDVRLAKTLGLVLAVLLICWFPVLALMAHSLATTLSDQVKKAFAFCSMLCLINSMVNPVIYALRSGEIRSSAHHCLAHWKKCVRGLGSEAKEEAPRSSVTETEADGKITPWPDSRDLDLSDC

Turning to `COc1ccc(-c2nnc(NC(=O)C(C)(C)S(=O)(=O)CC3CCOCC3)[nH]2)cc1`, the EC50 at human CB2R is 9.5 nM; on human CB1R, more than 50000 nM.

`CC(C)(CO)c1cc(NC(=O)C(C)(C)S(=O)(=O)C2CCCC2)on1`: the EC50 was 75 nM at human CB2R and more than 20000 nM on human CB1R.

For `CC(C)(CO)c1cc(NC(=O)C(C)(C)S(=O)(=O)CC2CCC2)on1`, the figures for the EC50 on human CB2R and on human CB1R were 82 nM and more than 20000 nM, respectively.

In the case of `COc1ccc(-c2nnc(NC(=O)C(C)(C)S(=O)(=O)C3CCOCC3)[nH]2)cc1`, the EC50 on human CB2R was 0.66 nM; at human CB1R, more than 20000 nM.

Take `CC(C)(CO)c1cc(NC(=O)C(C)(C)S(=O)(=O)c2ccc(F)cc2)on1`: the values for the EC50 on human CB2R and at human CB1R were 30 nM and more than 20000 nM, respectively.

As to `CC(C)(C(=O)Nc1nnc(-c2ccc(O)cc2)[nH]1)S(=O)(=O)CC1CCOCC1`, the EC50 is 100 nM on human CB2R and more than 20000 nM on human CB1R.

In the case of `CC(C)(C(=O)Nc1nnc(-c2ccc(O)cc2)[nH]1)S(=O)(=O)C1CCOCC1`, the EC50 on human CB2R is 5 nM; on human CB1R, more than 20000 nM.

Turning to `COCC(C)(C)c1cc(NC(=O)C(C)(C)S(=O)(=O)CC2CCOCC2)on1`, the EC50 is 29 nM on human CB2R and more than 20000 nM on human CB1R.

As for `COc1ccc(-c2nnc(NC(=O)C(C)(C)S(=O)(=O)C3CCCC3)[nH]2)cc1`, the EC50 on human CB2R is 14 nM; at human CB1R, more than 20000 nM.

Regarding `COc1ccc(-c2nnc(NC(=O)C(C)(C)S(=O)(=O)CC(C)C)[nH]2)cc1`, the EC50 was 69 nM on human CB2R and more than 20000 nM at human CB1R.

Take `COc1ccc(-c2nnc(NC(=O)C(C)(C)S(=O)(=O)C3CCN(S(C)(=O)=O)CC3)[nH]2)cc1`: the EC50 on human CB2R was 16 nM; at human CB1R it was 29400 nM.

Regarding `COc1ccc(-c2nnc(NC(=O)C(C)(C)S(=O)(=O)c3ccc(S(C)(=O)=O)cc3F)[nH]2)cc1`, the concentration for a half-maximal effect (EC50) at human CB2R is 2.1 nM; at human CB1R, more than 20000 nM.

On to `COc1ccc(-c2nnc(NC(=O)C(C)(C)S(=O)(=O)N3CCC3)[nH]2)cc1`, for which the results for the concentration giving a half-maximal response (EC50) on human CB2R and on human CB1R were 32 nM and more than 20000 nM, respectively.

Regarding `COc1ccc(-c2nnc(NC(=O)C(C)(C)S(=O)(=O)N3CC[C@@H](F)C3)[nH]2)cc1`, the EC50 at human CB2R was 33 nM; on human CB1R, more than 50000 nM.

Consider `COCC(C)(C)c1cc(NC(=O)C(C)(C)S(=O)(=O)C2CCOCC2)on1`, for which the EC50 on human CB2R was 3.1 nM; at human CB1R it was more than 20000 nM.

As for `CC(C)(CO)c1cc(NC(=O)C(C)(C)S(=O)(=O)C2CCN(S(C)(=O)=O)CC2)on1`, the EC50 at human CB2R was 14 nM; on human CB1R, more than 50000 nM.

For the molecule `CC(C)(CO)c1cc(NC(=O)C(C)(C)S(=O)(=O)CC2CCC(=O)CC2)on1`, the EC50 is 68 nM on human CB2R and more than 50000 nM at human CB1R.

Turning to `CC(C)(CO)c1cc(NC(=O)C(C)(C)S(=O)(=O)C2CCOCC2)no1`, the results for the 50% effective concentration (EC50) on human CB2R and on human CB1R were 33 nM and more than 50000 nM, respectively.

Take `CC(C)(CO)c1cc(NC(=O)C(C)(C)S(=O)(=O)CCCC(F)(F)F)no1`: the EC50 at human CB2R was 25 nM; at human CB1R it was more than 20000 nM.

For `CC(C)(CO)c1nnc(NC(=O)C(C)(C)S(=O)(=O)C2CCOCC2)s1`, the concentration for a half-maximal effect (EC50) was 48 nM on human CB2R and more than 50000 nM on human CB1R.

Take `COc1ccc(-c2nnc(NC(=O)C(C)(C)S(=O)(=O)C[C@H]3CCOC3)[nH]2)cc1`: the figures for the EC50 at human CB2R and on human CB1R were 90 nM and more than 50000 nM, respectively.

Regarding `COc1ccc(-c2nnc(NC(=O)C(C)(C)S(=O)(=O)C[C@@H]3CCOC3)[nH]2)cc1`, the EC50 on human CB2R was 240 nM; on human CB1R, more than 50000 nM.

Consider `COCC(C)(C)c1cc(NC(=O)C(C)(C)S(=O)(=O)C2CCOCC2)no1`, for which the EC50 on human CB2R was 3.5 nM; on human CB1R, more than 50000 nM.

On to `CC(C)(C(=O)Nc1cc(C2(CO)CCC2)no1)S(=O)(=O)C1CCOCC1`, for which the EC50 was 77 nM on human CB2R and more than 50000 nM on human CB1R.

In the case of `CC(C)(C(=O)Nc1cc(C2(CO)CCCC2)no1)S(=O)(=O)C1CCOCC1`, the EC50 is 15 nM at human CB2R and more than 50000 nM on human CB1R.

Consider `CC(C)(C(=O)Nc1cc(C2(CO)CCCC2)no1)S(=O)(=O)CC1CCOCC1`, for which the EC50 on human CB2R is 206 nM; at human CB1R it was more than 50000 nM.

Consider `CCOCC(C)(C)c1cc(NC(=O)C(C)(C)S(=O)(=O)C2CCOCC2)on1`, for which the EC50 was 3.6 nM on human CB2R and more than 20000 nM on human CB1R.

Regarding `CC(C)(C(=O)Nc1cc(C2(CO)CCCCC2)no1)S(=O)(=O)C1CCOCC1`, the 50% effective concentration (EC50) on human CB2R was 38 nM; at human CB1R, more than 20000 nM.

On to `CC(C)(C(=O)Nc1cc(C2(CO)CCC2)no1)S(=O)(=O)CC1CCC1`, for which the EC50 at human CB2R was 74 nM; at human CB1R it was more than 50000 nM.

Consider `CC(C)CCS(=O)(=O)C(C)(C)C(=O)Nc1cc(C2(CO)CC2)no1`, for which the values for the EC50 at human CB2R and on human CB1R were 14 nM and more than 20000 nM, respectively.

Consider `CC[C@H](C)S(=O)(=O)C(C)(C)C(=O)Nc1cc(C2(CO)CCCC2)no1`, for which the EC50 is 82 nM on human CB2R and more than 20000 nM at human CB1R.

Regarding `CC(C)(C(=O)Nc1cc(C2(CO)CCCC2)no1)S(=O)(=O)C1CCCC1`, the EC50 on human CB2R is 45 nM; at human CB1R, more than 20000 nM.

Consider `CC(C)(CO)c1cc(NC(=O)C(C)(C)S(=O)(=O)c2ccc(F)cc2)no1`, for which the 50% effective concentration (EC50) on human CB2R was 45 nM; at human CB1R, more than 50000 nM.

Turning to `CC(C)(CO)c1cc(NC(=O)C(C)(C)S(=O)(=O)CC2CCC2)no1`, the results for the EC50 at human CB2R and at human CB1R were 96 nM and more than 50000 nM, respectively.

`CC(C)(CO)c1cc(NC(=O)C(C)(C)S(=O)(=O)c2cccc(F)c2F)no1`: the EC50 was 69 nM on human CB2R and more than 50000 nM on human CB1R.

For the molecule `COc1ccccc1-c1n[nH]c(NC(=O)C(C)(C)S(=O)(=O)CC2CC2)n1`, the figures for the EC50 at human CB2R and at human CB1R were 15 nM and more than 20000 nM, respectively.

With `CC(C)(C(=O)Nc1nc(-c2ccc(O)cc2)n[nH]1)S(=O)(=O)C1CCCC1`, the EC50 at human CB2R is 36 nM; on human CB1R, more than 50000 nM.

`CC(C)(C(=O)Nc1nc(-c2ccc(O)cc2)n[nH]1)S(=O)(=O)CC1CCC1`: the EC50 on human CB2R was 22 nM; at human CB1R it was more than 50000 nM.

As to `COc1ccc(-c2nnc(NC(=O)C(C)(C)S(=O)(=O)CC3CC3)[nH]2)c(F)c1`, the EC50 is 34 nM on human CB2R and more than 50000 nM on human CB1R.

With `COc1ccc(-c2nnc(NC(=O)C(C)(C)S(=O)(=O)C3CCOCC3)[nH]2)c(F)c1`, the EC50 is 13 nM on human CB2R and more than 50000 nM at human CB1R.

As for `CC(C)(C(=O)Nc1nc(-c2ccccc2O)n[nH]1)S(=O)(=O)C1CCOCC1`, the values for the EC50 on human CB2R and at human CB1R were 30 nM and more than 20000 nM, respectively.

On to `CC[C@@H](C)S(=O)(=O)C(C)(C)C(=O)Nc1nnc(-c2ccc(OC)cc2)[nH]1`, for which the EC50 at human CB2R was 83 nM; at human CB1R it was more than 50000 nM.

Consider `CC[C@H](C)S(=O)(=O)C(C)(C)C(=O)Nc1nnc(-c2ccc(OC)cc2)[nH]1`, for which the EC50 on human CB2R is 47 nM; on human CB1R it was more than 50000 nM.

For `CC(C)(C(=O)Nc1nnc(-c2ccc(O)cc2F)[nH]1)S(=O)(=O)C1CCOCC1`, the EC50 on human CB2R is 7.7 nM; on human CB1R it was more than 50000 nM.

With `CC(C)(C(=O)Nc1nnc(-c2ccc(O)cc2)[nH]1)S(=O)(=O)CC1CC1`, the EC50 on human CB2R is 34 nM; on human CB1R it was more than 50000 nM.

For `COc1ccc(-c2nnc(NC(=O)C(C)(C)S(=O)(=O)CC3CCC3)[nH]2)c(F)c1`, the 50% effective concentration (EC50) on human CB2R was 7.6 nM; on human CB1R, more than 20000 nM.

Take `CC(C)(C(=O)Nc1nnc(-c2ccc(O)cc2F)[nH]1)S(=O)(=O)CC1CCC1`: the EC50 at human CB2R was 9.4 nM; at human CB1R, 35000 nM.

For the molecule `CC(C)(O)c1cc(NC(=O)C(C)(C)S(=O)(=O)C2CCOCC2)on1`, the EC50 is 88 nM at human CB2R and more than 50000 nM on human CB1R.

On to `CC(C)(O)c1cc(NC(=O)C(C)(C)S(=O)(=O)CCCC(F)(F)F)on1`, for which the EC50 at human CB2R is 49 nM; at human CB1R, more than 20000 nM.

For `CC(C)CCS(=O)(=O)C(C)(C)C(=O)Nc1nnc(C(C)(C)CO)s1`, the EC50 at human CB2R was 18 nM; on human CB1R, more than 20000 nM.

Regarding `CO[C@H]1CC[C@@H](S(=O)(=O)C(C)(C)C(=O)Nc2cc(C(C)(C)CO)no2)CC1`, the EC50 is 57 nM at human CB2R and more than 50000 nM at human CB1R.

As to `CC(C)(CO)c1cc(NC(=O)C(C)(C)S(=O)(=O)CC[C@H]2CCOC2)on1`, the EC50 on human CB2R was 6.2 nM; at human CB1R, more than 20000 nM.

Take `CC(C)(CO)c1cc(NC(=O)C(C)(C)S(=O)(=O)CC[C@@H]2CCOC2)on1`: the EC50 at human CB2R is 14 nM; on human CB1R, more than 50000 nM.

As for `COCC(C)(C)c1cc(NC(=O)C(C)(C)S(=O)(=O)C2CCN(S(C)(=O)=O)CC2)no1`, the half-maximal effective concentration (EC50) at human CB2R was 6.2 nM; on human CB1R, more than 50000 nM.

On to `CC(C)(CO)c1cc(NC(=O)C(C)(C)S(=O)(=O)C2CCN(S(C)(=O)=O)CC2)no1`, for which the EC50 on human CB2R was 91 nM; at human CB1R it was more than 50000 nM.

`CC(C)(CO)c1nnc(NC(=O)C(C)(C)S(=O)(=O)C[C@H]2CCCCO2)s1`: the EC50 on human CB2R is 28 nM; on human CB1R, more than 50000 nM.

The EC50 is the concentration that produces a half-maximal response. A low value points to a more potent agent.
